In test [1] the target is T1, hMOR-1 (Homo sapiens, UniProt P35372).
T1 construct: purchased Amersham Biosciences; host or cells: stably transfected CHO cells (membrane preparation)
Description: Opioid receptor competitive binding assay, MOR (3H-DAMGO). As to conditions: Ki MOR, Table 4; 3H-DAMGO, hMOR-1 stably transfected into CHO cells; errors 95% confidence interval. On the procedure: (§1) For selected compounds, Ki for MOR, DOR, and KOR were determined according to the following procedure: Recombinant hMOR-1 membrane preps from stably transfected CHO cells and recombinant hDOR-1 membrane preps from stably transfected HEK-293 cells were purchased from Amersham Biosciences. Guinea pig cerebellum preparations were used for KOR assays.
(§2) Each microassay from an assay plate was filtered through an individual well of a Packard GF/B 96-well filter plate (glass fiber filter) to collect the membranes. Each well was washed twice with 200 μL of ice cold wash buffer (50 mM Tris, pH 7.4). The filter plate was allowed to dry overnight, the back was sealed, and Packard Bioscience Microscint PS scintillation fluid (75 μL) was added to each well, which was then counted for ^3H for 2 minutes using a Packard Bioscience TopCount scintillation counter plate reader.
(§3) Each compound was assayed at 8 concentrations, using half-log serial dilutions. Each concentration was tested in triplicate, and the ^3H cpm were averaged.
(§4) This concentration was determined experimentally by scintillation counting an aliquot of the radioligand stock solution used in the assay.
(§5) Kd=the binding constant for the radioligand.
(§6) This triplicate experiment was repeated three times for the MOR and twice for the DOR and the KOR.

Test [2] has as its target T1, hMOR-1. Put plainly: MOR GTP-γ-S assay (MOR activation). It is filed as biochemical. As to conditions: Table 15; compound 10 mM (footnote); percentage of DAMGO induced GTP-g-35S specific binding; CHO membranes with hMOR-1. On the procedure: MOR GTP-γ-S assay was run in the same 200 μL, 96 well format as the binding assay. Each microassay contained experimental compound, 0.04 nM GTP-γ-^35S, 9 μM GDP, and about 0.02 nM MOR (from stably transfected CHO cells), in assay buffer (50 mM Tris-HCl, 3 mM MgCl2, 0.2 mM EGTA, 100 mM NaCl, pH 7.4). The assays were incubated for two to three hours at room temperature, then filtered onto a filter plate. The plate was dried; scintillation fluid was added, and the wells were counted for ^35S. Blank assays were run to determine non-specific binding. […] The results were averaged; the non-specific counts were subtracted, and the resulting value was expressed as a percent of the value obtained for DAMGO. The error reported is two standard deviations from the mean of the quadruplicate experiment. The values were compared using one way Anova with Tukey's post-hoc analysis.

The next test addresses T2, hDOR-1 (Homo sapiens, UniProt P41143).
T2 construct: purchased Amersham Biosciences; host or cells: stably transfected HEK-293 cells (membrane preparation)
Put plainly: Opioid receptor competitive binding assay, DOR. The following applies: for Ki: Ki DOR, Table 7, 3H-diprenorphine, hDOR-1 stably transfected into HEK-293 cells, errors two standard deviations; for Ki DOR/Ki MOR: Table 13, selectivity for MOR versus DOR (footnote: 3H-DPDPE, hDOR-1). The procedure:
as §1, §2, §3, §4, §5, §6

In the next test the target is T3, KOR (Cavia porcellus, UniProt P41144).
T3 construct: from tissue; host or cells: guinea pig cerebellum preparation
Description: Opioid receptor competitive binding assay, KOR (3H-U-69,593). The arrangement: species or system guinea pig. As to conditions: for Ki: Ki KOR, Table 10, 3H-U-69,593, guinea pig cerebellum preparation, errors two standard deviations; for Ki KOR/Ki MOR: Table 13, selectivity for MOR versus KOR. The procedure: as §1, §2, §3, §6

The values below come from patent US7223888B2, “Mu opioid receptor ligands: methods of use and synthesis” (President and Fellows of Harvard College, priority 2002, dated 2007).

Regarding `Cc1cc(O)cc(C)c1CC(N)C(O)C/C=C/C(O)C(Cc1ccccc1)C(=O)NC(Cc1ccccc1)C(N)=O` (single isomer, unassigned) [(S,R,S,R)-25, 7-(1-Carbamoyl-2-phenyl-ethylcarbamoyl)-2,6-dihydroxy-1-(4-hydroxy-2,6-dimethyl-benzyl)-8-phenyl-oct-4-enyl-ammonium], the Ki at hMOR-1 [1] worked out at 1.2 ± 0.3 nM; on hDOR-1 it was 46 ± 16 nM; at KOR it was 15 ± 8 nM. Besides, the “% GTP-γ-35S bound” value on hMOR-1 [2] was found to be 14 ± 3%. The “Ki DOR/Ki MOR” value at hDOR-1 is 38. The “Ki KOR/Ki MOR” value at KOR is reported as 13.

With `Cc1cc(O)cc(C)c1CC(N)C(O)C/C=C/C(O)C(Cc1ccccc1)C(=O)NCCc1ccccc1` (single isomer, unassigned) [(S,R,S,R)-26, 2,6-Dihydroxy-1-(4-hydroxy-2,6-dimethyl-benzyl)-7-phenethylcarbamoyl-8-phenyl-oct-4-enyl-ammonium], the affinity at hMOR-1 [1] corresponds to a Ki of 0.24 ± 0.05 nM. The “% GTP-γ-35S bound” value at hMOR-1 [2] is 49 ± 4%. In addition, on hDOR-1, the Ki amounted to 123 ± 8 nM and the “Ki DOR/Ki MOR” value turned out to be 510. Further, on KOR, the Ki stood at 51 ± 1 nM and the “Ki KOR/Ki MOR” value came out at 210.

Take `Cc1cc(O)cc(C)c1CC(N)C(O)C/C=C/C(O)C(Cc1ccccc1)C(=O)NC(Cc1ccccc1)C(N)=O` (single isomer, unassigned) [(S,S,R,R)-25, 7-(1-Carbamoyl-2-phenyl-ethylcarbamoyl)-2,6-dihydroxy-1-(4-hydroxy-2,6-dimethyl-benzyl)-8-phenyl-oct-4-enyl-ammonium]: the Ki on hMOR-1 [1] was found to be 0.42 ± 0.09 nM; on hDOR-1, 36 ± 6 nM; on KOR, 21 ± 4 nM. In addition, the “% GTP-γ-35S bound” value on hMOR-1 [2] turned out to be 75 ± 11%. Moreover, the “Ki DOR/Ki MOR” value at hDOR-1 amounted to 86. Further, the “Ki KOR/Ki MOR” value at KOR is given as 49.

For `Cc1cc(O)cc(C)c1CC(N)C(O)C/C=C/C(O)C(Cc1ccccc1)C(=O)NCCc1ccccc1` (single isomer, unassigned) [(S,S,R,R)-26, 2,6-Dihydroxy-1-(4-hydroxy-2,6-dimethyl-benzyl)-7-phenethylcarbamoyl-8-phenyl-oct-4-enyl-ammonium], the values for the inhibition constant (Ki) on hMOR-1 [1], on hDOR-1 and on KOR were 0.37 ± 0.13 nM, 26 ± 3 nM and 64 ± 14 nM, respectively. Further, the “% GTP-γ-35S bound” value on hMOR-1 [2] is 48 ± 9%. The “Ki DOR/Ki MOR” value at hDOR-1 was 70. Besides, the “Ki KOR/Ki MOR” value at KOR came out at 170.

Consider `Cc1cc(O)cc(C)c1CC(N)C(O)C/C=C/C(O)C(Cc1ccccc1)C(=O)NC(Cc1ccccc1)C(N)=O` (single isomer, unassigned) [(S,S,R,S)-25, 7-(1-Carbamoyl-2-phenyl-ethylcarbamoyl)-2,6-dihydroxy-1-(4-hydroxy-2,6-dimethyl-benzyl)-8-phenyl-oct-4-enyl-ammonium], for which the results for the Ki on hMOR-1 [1], on hDOR-1 and on KOR were 1.2 ± 0.4 nM, 230 ± 20 nM and 50 ± 16 nM, respectively. In addition, the “% GTP-γ-35S bound” value on hMOR-1 [2] came out at 32 ± 5%. The “Ki DOR/Ki MOR” value on hDOR-1 worked out at 190. Further, the “Ki KOR/Ki MOR” value at KOR came out at 41.

At hMOR-1 [1], `Cc1cc(O)cc(C)c1CC(N)C(O)C/C=C/C(O)C(Cc1ccccc1)C(=O)NCCc1ccccc1` (single isomer, unassigned) [(S,S,R,S)-26, 2,6-Dihydroxy-1-(4-hydroxy-2,6-dimethyl-benzyl)-7-phenethylcarbamoyl-8-phenyl-oct-4-enyl-ammonium] yielded an inhibition constant Ki of 0.64 ± 0.09 nM. Further, the “% GTP-γ-35S bound” value at hMOR-1 [2] turned out to be 52 ± 6%. For the same compound, at hDOR-1, the Ki was found to be 120 ± 30 nM and the “Ki DOR/Ki MOR” value turned out to be 190. In addition, at KOR, the affinity, expressed as Ki, was 60 ± 32 nM and the “Ki KOR/Ki MOR” value is recorded as 94.

As to `Cc1cc(O)cc(C)c1CC(N)C(O)C/C=C/C(O)C(Cc1ccccc1)C(=O)NC(Cc1ccccc1)C(N)=O` (single isomer, unassigned) [(S,S,S,R)-25, 7-(1-Carbamoyl-2-phenyl-ethylcarbamoyl)-2,6-dihydroxy-1-(4-hydroxy-2,6-dimethyl-benzyl)-8-phenyl-oct-4-enyl-ammonium], at hMOR-1 [1], the inhibition constant Ki came out at 0.17 ± 0.07 nM. Also, on hMOR-1 [2], the “% GTP-γ-35S bound” value is 35 ± 5%. Besides, at hDOR-1, the affinity, expressed as Ki, was 40 ± 1 nM and the “Ki DOR/Ki MOR” value worked out at 230. Also, on KOR, the affinity corresponds to a Ki of 22 ± 9 nM and the “Ki KOR/Ki MOR” value was 130.

As to `Cc1cc(O)cc(C)c1CC(N)C(O)C/C=C/C(O)C(Cc1ccccc1)C(=O)NCCc1ccccc1` (single isomer, unassigned) [(S,S,S,R)-26, 2,6-Dihydroxy-1-(4-hydroxy-2,6-dimethyl-benzyl)-7-phenethylcarbamoyl-8-phenyl-oct-4-enyl-ammonium], the Ki at hMOR-1 [1] amounted to 0.29 ± 0.06 nM; at hDOR-1, 99 ± 11 nM; at KOR, 42 ± 29 nM. In addition, at hMOR-1 [2], the “% GTP-γ-35S bound” value is on record as 40 ± 3%. Also, the “Ki DOR/Ki MOR” value at hDOR-1 worked out at 340. Further, at KOR, the “Ki KOR/Ki MOR” value was found to be 140.

As for `Cc1cc(O)cc(C)c1CC(N)C(O)C/C=C/C(O)C(Cc1ccccc1)C(=O)NC(CO)Cc1ccccc1` [(S,S,S,R)-27], the figures for the Ki on hMOR-1 [1], on hDOR-1 and on KOR were 0.16 ± 0.06 nM, 54 ± 8 nM and 69 ± 14 nM, respectively. Also, the “% GTP-γ-35S bound” value on hMOR-1 [2] was 44 ± 6%.

Turning to `Cc1cc(O)cc(C)c1CC(N)C(O)C/C=C/C(O)C(Cc1ccccc1)C(=O)OC(CO)Cc1ccccc1` [(S,S,S,R)-30, 7-(1-Benzyl-2-hydroxy-ethoxycarbonyl)-2,6-dihydroxy-1-(4-hydroxy-2,6-dimethyl-benzyl)-8-phenyl-oct-4-enyl-ammonium], the Ki at hMOR-1 [1] is 0.44 ± 0.01 nM. The “% GTP-γ-35S bound” value at hMOR-1 [2] was determined as 62 ± 4%. Moreover, at hDOR-1, the affinity corresponds to a Ki of 17 ± 6 nM and the “Ki DOR/Ki MOR” value was 39. In addition, on KOR, the inhibitory constant (Ki) is 85 ± 1 nM and the “Ki KOR/Ki MOR” value is reported as 190.

What is called Ki is a dissociation constant, usually derived from enzyme kinetics or from competition with a known ligand. Low values mean tighter binding, high ones weaker binding.
